For 8 molecules, GI50 and TGI results are on record in PubChem BioAssay (NCI).

Among the test systems are K-562 leukemia; SF-268 CNS; NCI-H23 lung; A498 renal; SF-295 CNS; HCT-116 colon; MOLT-4 leukemia; NCI-H226 lung; LOX IMVI melanoma.
Experiment in all cases: NCI anticancer screen, dose series, 48 h

SMILES strings stand for the structures.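 Tested at 5 concentrations; 48 h exposure; 96-well plates; endpoints linearly interpolated, else capped at highest concentration. GI50 marks 50% less growth. TGI: total growth inhibition.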

On to `COc1ccccc1NC(=O)c1sc2nc3c(cc2c1N)C(=O)CCC3`, for which the GI50 in the assay on K-562 leukemia was 1.53 µM; in the assay with SF-268 CNS it was 5.06 µM; in the assay with NCI-H23 lung, 16.8 µM; with A498 renal, 1.84 µM; in the assay on SF-295 CNS, 1.75 µM; in the assay on HCT-116 colon, 6.29 µM. In addition, the GI50 is > 100 µM in the assay with MOLT-4 leukemia, 4.87 µM in the assay with NCI-H226 lung and > 100 µM in the assay with LOX IMVI melanoma. For the same molecule, the TGI with K-562 leukemia, with SF-268 CNS, in the assay on NCI-H23 lung, in the assay on A498 renal, in the assay on SF-295 CNS and in the assay with HCT-116 colon was > 100 µM in each case. Also, the TGI with MOLT-4 leukemia, in the assay on NCI-H226 lung and in the assay on LOX IMVI melanoma was > 100 µM each time.

For the molecule `O=C(O)C/C(=C\c1ccco1)C(=O)O`, the TGI in the assay on K-562 leukemia, with NCI-H23 lung, in the assay on A498 renal, in the assay with SF-295 CNS, with HCT-116 colon and in the assay on MOLT-4 leukemia was > 100 µM each time. The TGI with NCI-H226 lung and in the assay on LOX IMVI melanoma was > 100 µM in each case.

As for `CCSCC1CC(O)(c2ccccc2)C(c2ccccc2)C(c2ccc(Cl)cc2)O1` (centres undefined), the GI50 in the assay on K-562 leukemia was 1.89 µM; with SF-268 CNS, 2.1 µM; in the assay with NCI-H23 lung, 1.88 µM; with A498 renal it was 1.79 µM; with SF-295 CNS it was 1.56 µM; with HCT-116 colon, 1.21 µM. Moreover, the GI50 is 1.73 µM in the assay on MOLT-4 leukemia, 1.74 µM with NCI-H226 lung and 1.65 µM with LOX IMVI melanoma. The TGI was 8.37 µM in the assay with K-562 leukemia; 5.56 µM in the assay on SF-268 CNS; 3.94 µM with NCI-H23 lung; 3.41 µM with A498 renal; 3.73 µM in the assay with SF-295 CNS; 2.58 µM in the assay with HCT-116 colon. Besides, the TGI worked out at 9.82 µM in the assay on MOLT-4 leukemia, 3.97 µM in the assay on NCI-H226 lung and 3.05 µM with LOX IMVI melanoma.

Consider `COc1ccc(C2CC(=O)c3c(O)cc(O)cc3O2)cc1O` (centres undefined), for which the TGI in the assay on K-562 leukemia, in the assay on SF-268 CNS, in the assay with NCI-H23 lung, with A498 renal, with SF-295 CNS and with HCT-116 colon was > 100 µM each time. Moreover, the TGI with MOLT-4 leukemia, in the assay on NCI-H226 lung and with LOX IMVI melanoma was > 100 µM each time.

For `CC(=O)N[C@@H](Cc1ccc(OP(=O)(O)O)cc1)C(=O)N[C@H]1CCC(=O)N2CCC[C@@H](C(=O)NCc3ccc(Cl)cc3)N2C1=O`, the GI50 with K-562 leukemia, in the assay with SF-268 CNS, in the assay with NCI-H23 lung, with A498 renal, in the assay on SF-295 CNS and with HCT-116 colon was > 25 µM throughout. For the same molecule, the GI50 with MOLT-4 leukemia, in the assay on NCI-H226 lung and in the assay with LOX IMVI melanoma was > 25 µM each time. For the same molecule, the TGI in the assay with K-562 leukemia, in the assay with SF-268 CNS, in the assay with NCI-H23 lung, in the assay on A498 renal, in the assay with SF-295 CNS and in the assay on HCT-116 colon was > 25 µM in each case. The TGI with MOLT-4 leukemia, in the assay with NCI-H226 lung and in the assay on LOX IMVI melanoma was > 25 µM each time.

In the case of `CC(C)(C)OC1=C(OC(C)(C)C)C(O)(c2ccccc2)C1=O` (centres undefined), the TGI in the assay with K-562 leukemia, in the assay with SF-268 CNS, in the assay on NCI-H23 lung, in the assay on A498 renal, with SF-295 CNS and in the assay on MOLT-4 leukemia was > 100 µM throughout. In addition, the TGI in the assay on LOX IMVI melanoma was > 100 µM.

For the molecule `O=C(Nc1ccc(Cl)c(Cl)c1)c1cccc(NC2=C(Cl)C(=O)N(Cc3ccccc3)C2=O)c1`, the GI50 in the assay with K-562 leukemia is 11.5 µM; with SF-268 CNS, 34.9 µM; with NCI-H23 lung, 37.1 µM; in the assay with A498 renal it was 23.8 µM; with SF-295 CNS, 49.7 µM; with HCT-116 colon, 27.8 µM. For the same molecule, the results for the GI50 in the assay on MOLT-4 leukemia, in the assay with NCI-H226 lung and with LOX IMVI melanoma were 6.36 µM, 35.5 µM and 27 µM, respectively. Further, the TGI in the assay on K-562 leukemia, in the assay with SF-268 CNS, in the assay on NCI-H23 lung, in the assay with A498 renal, with SF-295 CNS and in the assay on HCT-116 colon was > 100 µM each time. Further, the TGI in the assay with MOLT-4 leukemia is 78.5 µM; with NCI-H226 lung, > 100 µM; with LOX IMVI melanoma, > 100 µM.

As for `FC(F)(F)c1nc(N2CCCC2)ncc1-c1nnnn1-c1ccc(Cl)cc1`, the GI50 in the assay on K-562 leukemia is 3 µM; in the assay with SF-268 CNS, 23.7 µM; in the assay with NCI-H23 lung it was 20 µM; with A498 renal, 18.3 µM; in the assay on SF-295 CNS, 19 µM; in the assay with HCT-116 colon, 23 µM. Moreover, the figures for the GI50 in the assay on MOLT-4 leukemia, in the assay on NCI-H226 lung and with LOX IMVI melanoma were 5.07 µM, 13.9 µM and 15.4 µM, respectively. Further, the TGI in the assay with K-562 leukemia was 22.6 µM; with SF-268 CNS, > 100 µM; with NCI-H23 lung it was 51.8 µM; in the assay with A498 renal, 62.7 µM; in the assay with SF-295 CNS, > 100 µM; in the assay on HCT-116 colon it was 54.6 µM. For the same molecule, the figures for the TGI in the assay with MOLT-4 leukemia, with NCI-H226 lung and with LOX IMVI melanoma were 25 µM, > 100 µM and 49.5 µM, respectively.
